In PMC6311682, “Design, Synthesis, and Biological Evaluation of 2-Nitroimidazopyrazin-one/-es with Antitubercular and Antiparasitic Activity” (Journal of Medicinal Chemistry, 2018):
Converted amounts (≈) assume the structure as drawn. “And” between values parts separate entries of the source, which are not always exact repeats. Identical values can stand only once. Like-named read-outs stand apart in the source and are kept apart here.

What was measured:
HEK293 cells = tested on: HEK293 cells; set-up: method as in Jarrad et al. 2; settings: ATCC CRL-1573; ref Jarrad et al. 2; read-out: cytotoxicity CC50 HEK 293; cited from earlier work
HepG2 cells = tested on: HepG2 cells; set-up: method as in Jarrad et al. 2; settings: ATCC HB-8065; ref Jarrad et al. 2; read-out: cytotoxicity CC50 HepG2; cited from earlier work
[1] = tested on: L. donovani MHOM/IN/80/DD8 (ATCC50212); assay: L. donovani DD8 intracellular (THP-1) amastigote assay; format: cell-based; settings: Leishmania donovani
[2] = Mammalian cytotoxicity assay (resazurin), HEK293; settings: human, HEK293 cells
[3] = tested on: T. b. brucei (strain 427, BS427); assay: 384-well resazurin viability assay, T. b. brucei bloodstream parasites; format: cell-based; settings: Trypanosoma brucei, BS427, n = 2; read-out: antiparasitic IC50 T. b. brucei
[4] = tested on: C. difficile (630, ATCC BAA-1382); assay: Broth microdilution MIC assay, C. difficile; format: cell-based, Clostridium difficile; settings: 630 ATCC BAA-1382, median MIC; for MIC: Clostridioides difficile, ATCCBAA1382, read-out: antibacterial MIC C. difficile
[5] = Broth microdilution MIC assay, ESKAPE pathogens; format: cell-based; settings: S. aureus, E. coli, K. pneumoniae, A. baumannii, P. aeruginosa; read-out: antibacterial MIC ESKAPE
[6] = tested on: ESKAPE pathogens S. aureus (ATCC 43300), E. coli (ATCC 25922), K. pneumoniae (ATCC 700603), A. baumannii (ATCC 19606), P. aeruginosa (ATCC 27853); assay: Broth microdilution MIC assay, ESKAPE pathogens; format: cell-based
[7] = Mammalian cytotoxicity assay (resazurin), HepG2; settings: human, HepG2 cells
[8] = Kinetic solubility determination by LC-UV; settings: room temperature, 1% DMSO
[9] = tested on: C. albicans (ATCC 90028) and C. neoformans (H99, ATCC 208821); assay: Broth microdilution MIC assay, fungi; format: cell-based; settings: for MIC: Candida albicans, read-out: antifungal MIC
M. tuberculosis (H37Rv) = assay: M. tuberculosis H37Rv resazurin reduction microplate MIC assay, hypoxic conditions (0.1% oxygen); format: cell-based, Mycobacterium tuberculosis; settings: at 32 μg/mL
[10] = read-out: antiparasitic IC50 L. donovani
[11] = read-out: antiparasitic pIC50 ± SE L. donovani (converted)
[12] = PBS, pH 7.4, Solubility µM (PBS), PBS pH 7.4, 24 h
[13] = water, Solubility µM (H2O), 24 h

SMILES	CC50 (HEK293 cells)	CC50 (HepG2 cells)	IC50 [1, 10]	IC50 [1, 11]	CC50 at 24 h [2]	IC50 [3]	antibacterial MIC C. difficile [4]	MIC [4]	MIC [5]	antibacterial MIC ESKAPE [6]	CC50 at 24 h [7]	solubility at 24 h [8, 12]	solubility at 24 h [8, 13]	antifungal MIC [9]	MIC [9]	M. tuberculosis hypoxia % I (M. tuberculosis (H37Rv))
CNC(=O)c1nc([N+](=O)[O-])cn1Cc1ccc(OC(F)(F)F)cc1 [28g]	> 100 µM	> 100 µM	–	–	–	–	–	–	–	–	–	–	–	–	–	–
CC(=O)OCCn1c(C)cn2cc([N+](=O)[O-])nc2c1=O [25b, 2-(6-Methyl-2-nitro-8-oxoimidazo[1,2-a]pyrazin-7(8H)-yl)ethyl Acetate]	–	–	> 80 µM	> 79.4 µM	> 100 µM	< 1 µM	>64 µg/mL	> 64 µg/mL	> 32 µg/mL	>32 µg/mL	> 100 µM	> 200 µM	> 200 µM	>32 µg/mL	> 32 µg/mL	–
NC(=O)c1nc([N+](=O)[O-])cn1Cc1cccc(OC(F)(F)F)c1 [28f]	> 100 µM	> 100 µM	–	–	–	–	–	–	–	–	–	–	–	–	–	–
CC(=O)OCCOc1nc(-c2ccccc2)cn2cc([N+](=O)[O-])nc12 [24c, 2-((2-Nitro-6-phenylimidazo[1,2-a]pyrazin-8-yl)oxy)ethyl Acetate]	–	–	> 80 µM	> 79.4 µM	> 100 µM	–	>64 µg/mL	> 64 µg/mL	> 32 µg/mL	>32 µg/mL	> 100 µM	< 5 µM	< 5 µM	>32 µg/mL	> 32 µg/mL	–
Cc1cn2cc([N+](=O)[O-])nc2c(=O)n1CCO [25d, 7-(2-Hydroxyethyl)-6-methyl-2-nitroimidazo[1,2-a]pyrazin-8(7H)-one]	–	–	> 80 µM	> 79.4 µM	> 100 µM	–	>64 µg/mL	> 64 µg/mL	> 32 µg/mL	>32 µg/mL	> 100 µM	> 200 µM	> 200 µM	>32 µg/mL	> 32 µg/mL	–
Cc1nc(OCc2ccc(OC(F)(F)F)cc2)c2nc([N+](=O)[O-])cn2c1C [26c, 5,6-Dimethyl-2-nitro-8-((4-(trifluoromethoxy)benzyl)oxy)imidazo[1,2-a]pyrazine]	–	–	> 80 µM	> 79.4 µM	> 100 µM	–	>64 µg/mL	> 64 µg/mL	> 32 µg/mL	>32 µg/mL	> 100 µM	< 5 µM	< 5 µM	>32 µg/mL	> 32 µg/mL	–
CC(=O)OCCOc1nc(C)cn2cc([N+](=O)[O-])nc12 [25c, 2-((6-Methyl-2-nitroimidazo[1,2-a]pyrazin-8-yl)oxy)ethyl]	–	–	> 80 µM	> 79.4 µM	> 100 µM	–	>64 µg/mL	> 64 µg/mL	> 32 µg/mL	>32 µg/mL	> 100 µM	185 ± 2.69 µM (≈ 51.8 µg/mL)	169 ± 11 µM (≈ 47.4 µg/mL)	>32 µg/mL	> 32 µg/mL	–
NNC(=O)c1nc([N+](=O)[O-])cn1Cc1ccc(OC(F)(F)F)cc1 [28k]	> 100 µM	> 100 µM	–	–	–	–	–	–	–	–	–	–	–	–	–	–
CN(C)C(=O)c1nc([N+](=O)[O-])cn1Cc1ccc(OC(F)(F)F)cc1 [28h]	> 100 µM	> 100 µM	–	–	–	–	–	–	–	–	–	–	–	–	–	–
O=C(NCc1ccc(OC(F)(F)F)cc1)c1ncc([N+](=O)[O-])[nH]1 [16c]	93 µM	104 µM	–	–	–	–	–	–	–	–	–	–	–	–	–	75% and 60–75%
Cc1ccc(Cn2c(C)cn3cc([N+](=O)[O-])nc3c2=O)cc1 [25h, 6-Methyl-7-(4-methylbenzyl)-2-nitroimidazo[1,2-a]pyrazin-8(7H)-one]	–	–	> 40 µM	> 39.8 µM	> 100 µM	–	–	–	> 32 µg/mL	>32 µg/mL	> 100 µM	–	7.5 ± 0.245 µM (≈ 2.24 µg/mL)	>32 µg/mL	> 32 µg/mL	–
O=C(NCc1ccc(F)cc1)c1ncc([N+](=O)[O-])[nH]1 [16e]	> 100 µM	> 100 µM	–	–	–	–	–	–	–	–	–	–	–	–	–	–
NC(=O)c1nc([N+](=O)[O-])cn1Cc1ccc(F)cc1 [28e]	> 100 µM	> 100 µM	–	–	–	–	–	–	–	–	–	–	–	–	–	–
